These compounds were tested against Proteasome chymotrypsin-like activity (S26 protein from RPMI8226 cells) (Homo sapiens, UniProt P28074). Conditions: S26 protein from RPMI8226 cell extract 2 ug/well, substrate 20 uM, 37° C., 90 minutes; read-out: Proteasome chymotrypsin-like activity inhibition IC50.
Format: biochemical
Procedure, shortened: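 S26 proteasome fraction from homogenized RPMI8226 myeloma cells in 20 mM Tris-HCl pH 8.0 (2 ug extract/well) incubated 90 min at 37 °C with compound serially diluted from 10 uM (0.5% DMSO).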

Sequence of Proteasome chymotrypsin-like activity (S26 protein from RPMI8226 cells) (P28074 60-263 limits assumed): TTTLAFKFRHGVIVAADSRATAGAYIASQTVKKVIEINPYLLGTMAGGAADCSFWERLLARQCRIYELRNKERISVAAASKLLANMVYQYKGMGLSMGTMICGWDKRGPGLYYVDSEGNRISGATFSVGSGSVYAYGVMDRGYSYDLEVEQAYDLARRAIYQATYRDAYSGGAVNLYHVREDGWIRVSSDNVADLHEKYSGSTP

`CC(C)C[C@H](NC(=O)C1(Cc2cccc(C(F)(F)F)c2)CC(CNC(=O)c2nccc3ccccc23)=NO1)B(O)O` (stereo partly drawn) [Example 215, ((1R)-1-(3-((isoquinolin-1-carboxamido)methyl)-5-(3-(trifluoromethyl)benzyl)-4,5-dihydroisoxazol-5-carboxamido)-3-methylbutyl)boronic acid] and `CC(C)C[C@H](NC(=O)C1(Cc2cccc(OC(F)(F)F)c2)CC(CNC(=O)c2nccc3ccccc23)=NO1)B(O)O` (stereo partly drawn) [Example 216, ((1R)-1-(3-((isoquinolin-1-carboxamido)methyl)-5-(3-(trifluoromethoxy)benzyl)-4,5-dihydroisoxazol-5-carboxamido)-3-methylbutyl)boronic acid] cannot be ordered by IC50: < 0.01 µM for the first, < 0.01 µM for the second.

`Cc1cccc(CC2(C(=O)N[C@@H](CC(C)C)B(O)O)CC(CNC(=O)c3sc(C)nc3C)=NO2)c1` (stereo partly drawn) [Example 217, ((1R)-1-(3-((2,4-dimethylthiazol-5-carboxamido)methyl)-5-(3-methylbenzyl)-4,5-dihydroisoxazol-5-carboxamido)-3-methylbutyl)boronic acid] and `Cc1nc(C)c(C(=O)NCC2=NOC(Cc3cccc(Cl)c3)(C(=O)N[C@@H](CC(C)C)B(O)O)C2)s1` (stereo partly drawn) [Example 219, ((1R)-1-(5-(3-chlorobenzyl)-3-((2,4-dimethylthiazol-5-carboxamido)methyl)-4,5-dihydroisoxazol-5-carboxamido)-3-methylbutyl)boronic acid] cannot be ordered by IC50: < 0.01 µM for the first, < 0.01 µM for the second.

`Cc1cc(C(=O)NCC2=NOC(Cc3ccccc3)(C(=O)N[C@@H](CC(C)C)B(O)O)C2)n(C2CCOCC2)n1` (stereo partly drawn) [Example 218, ((1R)-1-(5-benzyl-3-((3-methyl-1-(tetrahydro-2H-pyran-4-yl)-1H-pyrazol-5-carboxamido)methyl)-4,5-dihydroisoxazol-5-carboxamido)-3-methylbutyl)boronic acid] and `COc1cccc(CC2(C(=O)N[C@@H](CC(C)C)B(O)O)CC(CNC(=O)c3cc(C)nn3C3CCCC3)=NO2)c1` (stereo partly drawn) [Example 240, ((1R)-1-(3-((1-cyclopentyl-3-methyl-1H-pyrazol-5-carboxamido)methyl)-5-(3-methoxybenzyl)-4,5-dihydroisoxazol-5-carboxamido)-3-methylbutyl)boronic acid] cannot be ordered by IC50: < 0.01 µM for the first, < 0.01 µM for the second.

`CC(C)C[C@H](NC(=O)C1(Cc2ccccc2)CC(CNC(=O)c2cnn(C)c2)=NO1)B(O)O` (stereo partly drawn) [Example 220, ((1R)-1-(5-benzyl-3-((1-methyl-1H-pyrazol-4-carboxamido)methyl)-4,5-dihydroisoxazol-5-carboxamido)-3-methylbutyl)boronic acid] and `Cc1nn(C)cc1C(=O)NCC1=NOC(Cc2ccccc2)(C(=O)N[C@@H](CC(C)C)B(O)O)C1` (stereo partly drawn) [Example 226, ((1R)-1-(5-benzyl-3-((1,3-dimethyl-1H-pyrazol-4-carboxamido)methyl)-4,5-dihydroisoxazol-5-carboxamido)-3-methylbutyl)boronic acid] cannot be ordered by IC50: < 0.01 µM for the first, < 0.025 µM for the second.

`CC(C)C[C@H](NC(=O)C1(Cc2ccccc2)CC(CNC(=O)c2cc(-c3ccccn3)nn2C(C)C)=NO1)B(O)O` (stereo partly drawn) [Example 221, ((1R)-1-(5-benzyl-3-((1-isopropyl-3-(pyridin-2-yl)-1H-pyrazol-5-carboxamido)methyl)-4,5-dihydroisoxazol-5-carboxamido)-3-methylbutyl)boronic acid] and `CC(C)C[C@H](NC(=O)C1(Cc2ccccc2)CC(CNC(=O)c2cc(-c3cccnc3)nn2C(C)C)=NO1)B(O)O` (stereo partly drawn) [Example 228, ((1R)-1-(5-benzyl-3-((1-isopropyl-3-(pyridin-3-yl)-1H-pyrazol-5-carboxamido)methyl)-4,5-dihydroisoxazol-5-carboxamido)-3-methylbutyl)boronic acid] cannot be ordered by IC50: < 0.01 µM for the first, < 0.01 µM for the second.

`Cc1nn(C(C)C)c(C(=O)NCC2=NOC(Cc3ccccc3)(C(=O)N[C@@H](CC(C)C)B(O)O)C2)c1Cl` (stereo partly drawn) [Example 222, ((1R)-1-(5-benzyl-3-((4-chloro-1-isopropyl-3-methyl-1H-pyrazol-5-carboxamido)methyl)-4,5-dihydroisoxazol-5-carboxamido)-3-methylbutyl)boronic acid] and `COc1cccc(CC2(C(=O)N[C@@H](CC(C)C)B(O)O)CC(CNC(=O)c3c(Cl)c(C)nn3C(C)C)=NO2)c1` (stereo partly drawn) [Example 233, ((1R)-1-(3-((4-chloro-1-isopropyl-3-methyl-1H-pyrazol-5-carboxamido)methyl)-5-(3-methoxybenzyl)-4,5-dihydroisoxazol-5-carboxamido)-3-methylbutyl)boronic acid] cannot be ordered by IC50: < 0.01 µM for the first, < 0.01 µM for the second.

`CC(C)C[C@H](NC(=O)C1(Cc2cccc(Cl)c2)CC(CNC(=O)c2cc(C(C)C)on2)=NO1)B(O)O` (stereo partly drawn) [Example 223, ((1R)-1-(5-(3-chlorobenzyl)-3-((5-isopropylisoxazol-3-carboxamido)methyl)-4,5-dihydroisoxazol-5-carboxamido)-3-methylbutyl)boronic acid] and `Cc1cc(C(=O)NCC2=NOC(Cc3cccc(Cl)c3)(C(=O)N[C@@H](CC(C)C)B(O)O)C2)n(C(C)C)n1` (stereo partly drawn) [Example 225, ((1R)-1-(5-(3-chlorobenzyl)-3-((1-isopropyl-3-methyl-1H-pyrazol-5-carboxamido)methyl)-4,5-dihydroisoxazol-5-carboxamido)-3-methylbutyl)boronic acid] cannot be ordered by IC50: < 0.01 µM for the first, < 0.01 µM for the second.

`CC(C)C[C@H](NC(=O)C1(Cc2ccccc2)CC(CNC(=O)c2cc(C(C)C)nn2C(C)C)=NO1)B(O)O` (stereo partly drawn) [Example 227, ((1R)-1-(5-benzyl-3-((1,3-diisopropyl-1H-pyrazol-5-carboxamido)methyl)-4,5-dihydroisoxazol-5-carboxamido)-3-methylbutyl)boronic acid] and `CC(C)C[C@H](NC(=O)C1(Cc2ccccc2)CC(CNC(=O)c2cc(-c3ccncc3)nn2C(C)C)=NO1)B(O)O` (stereo partly drawn) [Example 229, ((1R)-1-(5-benzyl-3-((1-isopropyl-3-(pyridin-4-yl)-1H-pyrazol-5-carboxamido)methyl)-4,5-dihydroisoxazol-5-carboxamido)-3-methylbutyl)boronic acid] cannot be ordered by IC50: < 0.01 µM for the first, < 0.01 µM for the second.

`COc1cccc(CC2(C(=O)N[C@@H](CC(C)C)B(O)O)CC(CNC(=O)c3cc(-c4ccccc4)nn3C(C)C)=NO2)c1` (stereo partly drawn) [Example 230, ((1R)-1-(3-((1-isopropyl-3-phenyl-1H-pyrazol-5-carboxamido)methyl)-5-(3-methoxybenzyl)-4,5-dihydroisoxazol-5-carboxamido)-3-methylbutyl)boronic acid] and `Cc1cccc(CC2(C(=O)N[C@@H](CC(C)C)B(O)O)CC(CNC(=O)c3cc(-c4ccccc4)nn3C(C)C)=NO2)c1` (stereo partly drawn) [Example 236, ((1R)-1-(3-((1-isopropyl-3-phenyl-1H-pyrazol-5-carboxamido)methyl)-5-(3-methylbenzyl)-4,5-dihydroisoxazol-5-carboxamido)-3-methylbutyl)boronic acid] cannot be ordered by IC50: < 0.01 µM for the first, < 0.01 µM for the second.

`COc1cccc(CC2(C(=O)N[C@@H](CC(C)C)B(O)O)CC(CNC(=O)c3cc(C(C)(C)C)nn3C(C)C)=NO2)c1` (stereo partly drawn) [Example 231, ((1R)-1-(3-((3-(tert-butyl)-1-isopropyl-1H-pyrazol-5-carboxamido)methyl)-5-(3-methoxybenzyl)-4,5-dihydroisoxazol-5-carboxamido)-3-methylbutyl)boronic acid] and `Cc1cccc(CC2(C(=O)N[C@@H](CC(C)C)B(O)O)CC(CNC(=O)c3cc(C(C)(C)C)nn3C(C)C)=NO2)c1` (stereo partly drawn) [Example 237, ((1R)-1-(3-((3-(tert-butyl)-1-isopropyl-1H-pyrazol-5-carboxamido)methyl)-5-(3-methylbenzyl)-4,5-dihydroisoxazol-5-carboxamido)-3-methylbutyl)boronic acid] cannot be ordered by IC50: < 0.01 µM for the first, < 0.01 µM for the second.

`COc1cccc(CC2(C(=O)N[C@@H](CC(C)C)B(O)O)CC(CNC(=O)c3cc(C)nn3C(C)C)=NO2)c1` (stereo partly drawn) [Example 232, ((1R)-1-(3-((1-isopropyl-3-methyl-1H-pyrazol-5-carboxamido)methyl)-5-(3-methoxybenzyl)-4,5-dihydroisoxazol-5-carboxamido)-3-methylbutyl)boronic acid] and `Cc1cccc(CC2(C(=O)N[C@@H](CC(C)C)B(O)O)CC(CNC(=O)c3cc(C)nn3C(C)C)=NO2)c1` (stereo partly drawn) [Example 234, ((1R)-1-(3-((1-isopropyl-3-methyl-1H-pyrazol-5-carboxamido)methyl)-5-(3-methylbenzyl)-4,5-dihydroisoxazol-5-carboxamido)-3-methylbutyl)boronic acid] cannot be ordered by IC50: < 0.01 µM for the first, < 0.01 µM for the second.

`Cc1ncc(C(=O)NCC2=NOC(Cc3ccccc3)(C(=O)N[C@@H](CC(C)C)B(O)O)C2)s1` (stereo partly drawn) [Example 235, ((1R)-1-(5-benzyl-3-((2-methylthiazol-5-carboxamido)methyl)-4,5-dihydroisoxazol-5-carboxamido)-3-methylbutyl)boronic acid] and `Cc1cccc(CC2(C(=O)N[C@@H](CC(C)C)B(O)O)CC(CNC(=O)c3cccn4ccnc34)=NO2)c1` (stereo partly drawn) [Example 238, ((1R)-1-(3-((imidazo[1,2-a]pyridin-8-carboxamido)methyl)-5-(3-methylbenzyl)-4,5-dihydroisoxazol-5-carboxamido)-3-methylbutyl)boronic acid] cannot be ordered by IC50: < 0.01 µM for the first, < 0.01 µM for the second.

`COc1cccc(CC2(C(=O)N[C@@H](CC(C)C)B(O)O)CC(CNC(=O)c3ccnn3C(C)C)=NO2)c1` (stereo partly drawn) [Example 239, ((1R)-1-(3-((1-isopropyl-1H-pyrazol-5-carboxamido)methyl)-5-(3-methoxybenzyl)-4,5-dihydroisoxazol-5-carboxamido)-3-methylbutyl)boronic acid] and `COc1cccc(CC2(C(=O)N[C@@H](CC(C)C)B(O)O)CC(CNC(=O)c3cc(-c4ccccn4)nn3C(C)C)=NO2)c1` (stereo partly drawn) [Example 241, ((1R)-1-(3-((1-isopropyl-3-(pyridin-2-yl)-1H-pyrazol-5-carboxamido)methyl)-5-(3-methoxybenzyl)-4,5-dihydroisoxazol-5-carboxamido)-3-methylbutyl)boronic acid] cannot be ordered by IC50: < 0.01 µM for the first, < 0.01 µM for the second.
